Values of other authors in patent publication US12296050B2, “Pharmaceutical compositions comprising maralixibat and uses thereof” (Mirum Pharmaceuticals, Inc., priority 2023, dated 2025).

Biological target: T1, apical sodium co-dependent bile acid transport (Homo sapiens, UniProt Q12908)
T1 sequence (Q12908 1-348): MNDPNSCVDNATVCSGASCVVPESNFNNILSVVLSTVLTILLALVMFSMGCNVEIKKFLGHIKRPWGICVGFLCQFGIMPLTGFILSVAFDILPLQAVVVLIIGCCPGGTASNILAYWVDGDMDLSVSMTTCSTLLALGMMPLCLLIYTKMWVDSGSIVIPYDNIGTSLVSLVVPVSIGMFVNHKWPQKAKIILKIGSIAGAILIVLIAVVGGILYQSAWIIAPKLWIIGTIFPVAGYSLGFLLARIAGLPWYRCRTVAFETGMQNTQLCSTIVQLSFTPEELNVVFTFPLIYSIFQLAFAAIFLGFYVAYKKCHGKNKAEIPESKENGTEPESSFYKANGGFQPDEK
Conditions: known from U.S. Pat. No. 5,994,391

Effect on apical sodium co-dependent bile acid transport, in words: inhibits
SMILES: CCCCC1(CCCC)CS(=O)(=O)c2ccc(N(C)C)cc2[C@@H](c2ccc(OCc3ccc(C[N+]45CCN(CC4)CC5)cc3)cc2)[C@H]1O.[Cl-] [maralixibat chloride]
